Test results: article PMC7747594, “Protease-activated receptor-2 ligands reveal orthosteric and allosteric mechanisms of receptor inhibition” (Communications Biology, 2020)
Where “and” joins values, the source holds several entries; their conditions need not be identical. Equal values may be shown once.

Legend:
hPAR2 = target: T1, hPAR2 (Homo sapiens, UniProt P55085); assay: β-arrestin-2 recruitment, agonist mode, U2OS-hPAR2 cells; type: cell-based; parameters: agonist response (Fig 2f), individual replicate values: unit not given here
T1 sequence (P55085 26-397): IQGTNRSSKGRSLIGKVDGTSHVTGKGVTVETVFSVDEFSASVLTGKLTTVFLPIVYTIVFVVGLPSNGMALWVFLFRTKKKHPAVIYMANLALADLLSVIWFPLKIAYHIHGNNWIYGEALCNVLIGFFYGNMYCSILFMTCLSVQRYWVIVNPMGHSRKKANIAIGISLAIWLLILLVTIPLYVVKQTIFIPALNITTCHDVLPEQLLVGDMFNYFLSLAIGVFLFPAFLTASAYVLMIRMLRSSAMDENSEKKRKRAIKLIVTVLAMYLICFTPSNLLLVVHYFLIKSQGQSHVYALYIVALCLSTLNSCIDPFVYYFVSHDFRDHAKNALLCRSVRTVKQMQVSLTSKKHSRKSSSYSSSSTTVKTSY

PAR4 (F2RL3) = target: T2, PAR4 (F2RL3) (Homo sapiens, UniProt Q96RI0); assay: β-arrestin recruitment, DiscoverX profiling service, PAR4; type: cell-based
T2 sequence (Q96RI0 18-385): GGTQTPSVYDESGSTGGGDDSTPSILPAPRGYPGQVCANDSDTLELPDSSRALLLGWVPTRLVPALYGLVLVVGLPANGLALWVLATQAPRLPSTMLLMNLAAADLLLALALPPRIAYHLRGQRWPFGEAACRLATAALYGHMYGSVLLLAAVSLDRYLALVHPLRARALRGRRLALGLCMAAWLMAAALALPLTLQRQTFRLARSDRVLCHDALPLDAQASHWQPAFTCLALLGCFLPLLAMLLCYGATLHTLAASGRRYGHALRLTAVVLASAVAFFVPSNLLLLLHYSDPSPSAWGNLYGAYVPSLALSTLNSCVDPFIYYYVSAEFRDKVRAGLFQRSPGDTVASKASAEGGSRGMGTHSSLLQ

PAR2[F154A], PAR2[G157C] = assay: Ca^2+ flux assay, inhibition of trypsin in 1321N1 cells transiently transfected with PAR2 [WT], [F154A] or [G157C]; type: cell-based, human; conditions: [F154A and G157C], monophasic
Method: Cell culture reagents were purchased from ThermoFisher Scientific unless otherwise stated. The parental 1321N1 cell line was obtained from ECACC. 1321N1 cells, stably expressing the human PAR2 receptor, (1321N1-hPAR2) were routinely cultured in Dulbecco’s Modified Eagle Medium (DMEM) supplemented with GlutaMax-1 containing 10% fetal bovine serum (FBS) and G418 (600 µg ml^−1). U2OS cells, stably expressing human PAR2 (U2OS-hPAR2, 93-0235C3, DiscoverX/Eurofins) were routinely cultured in McCoy’s 5A media containing 10% FBS, G418 (500 µg ml^−1) and Hygromycin B (250 µg ml^−1). Rodent PAR2 was assessed in rat KNRK cells (ATCC) cultured in DMEM with 10% FBS supplemented with 2 mM L-Glutamine. Human PAR2 was assessed in HT-29 cells (ECACC) cultured in DMEM with 10% FBS supplemented with penicillin (50 U ml^−1) and streptomycin (50 µg ml^−1). […]
For evaluation of Ca^2+ mobilisation, 1321N1-hPAR2 cells were seeded in 384-well CellBIND plates (Corning) at 4000 cells per well in DMEM containing 10% FBS and incubated for 18–24 hours at 37 °C, 5% CO2 and 95% humidity. […] Inhibition of Ca^2+ release on rat PAR2 was measured in the same way using 10 000 KNRK cells per well seeded in poly-D-lysine coated 384-well plates (Greiner), 30 min preincubation with the compound before activation of PAR2 with EC80 of SLIGRL-NH2 (120 µM) and real-time detection of Ca^2+. […]

Row | EC50 (hPAR2; U2OS-hPAR2, mean ± s.e.m., read-out: β-arrestin pEC50 (converted)) | Max Response (PAR4 (F2RL3); Arrestin, Agonist format, F2RL3) | EC50 (PAR4 (F2RL3); Arrestin, Agonist format, F2RL3, read-out: RC50 (EC50)) | Max Response (PAR4 (F2RL3); Arrestin, Antagonist format, F2RL3) | IC50 (PAR4 (F2RL3); Arrestin, Antagonist format, F2RL3, read-out: RC50 (IC50)) | activity against PAR4 in β-arrestin-2 recruitment assay (PAR4 (F2RL3); DiscoverX profiling service) | inhibition of trypsin-induced PAR2 activation at mutant receptors pIC50 (PAR2[F154A], PAR2[G157C]) | Compound | agonist response (Fig 2f), individual replicate values (hPAR2; [compound],M -4.52288) | agonist response (Fig 2f), individual replicate values (hPAR2; [compound],M -5) | agonist response (Fig 2f), individual replicate values (hPAR2; [compound],M -5.47712) | agonist response (Fig 2f), individual replicate values (hPAR2; [compound],M -5.95424) | agonist response (Fig 2f), individual replicate values (hPAR2; [compound],M -6.43136) | agonist response (Fig 2f), individual replicate values (hPAR2; [compound],M -6.90849) | agonist response (Fig 2f), individual replicate values (hPAR2; [compound],M -7.38561) | agonist response (Fig 2f), individual replicate values (hPAR2; [compound],M -7.86273) | agonist response (Fig 2f), individual replicate values (hPAR2; [compound],M -8.33985)
1 | 0.251 µM | 3.8% | > 50 µM | 2.3% | > 50 µM | No AZ2429 activity was detected | – | CNC(=O)[C@H]1CC[C@@H](NC(=O)[C@H](CC2CCCCC2)NC(=O)c2cn(Cc3ccccc3)nn2)c2ccccc21 [AZ2429] | 136.003 and 128.564 and 133.913 and 56.5764 and 110.418 and 80.4631 and 65.432 and 80.8727 and 70.3477 and 91.7141 and 102.077 and 89.1574 | 131.19 and 120.248 and 136.172 and 56.4288 and 102.534 and 68.8992 and 68.7979 and 70.6147 and 68.8215 and 77.979 and 96.7821 and 92.1516 | 112.303 and 119.541 and 118.68 and 44.4899 and 108.952 and 63.9568 and 68.1752 and 70.9487 and 60.988 and 94.267 and 96.9331 and 92.4234 | 118.57 and 119.322 and 126.112 and 66.9594 and 124.296 and 94.3698 and 67.5375 and 74.2944 and 72.0498 and 104.83 and 109.824 and 109.97 | 125.477 and 105.411 and 104.73 and 109.603 and 104.761 and 111.037 and 54.7204 and 64.3421 and 52.5276 and 82.0218 and 82.1308 and 78.7213 | 100.424 and 92.4091 and 99.838 and 93.2711 and 86.5209 and 104.138 and 29.1218 and 35.2385 and 27.4797 and 47.1154 and 56.0608 and 47.0166 | 86.365 and 78.1735 and 66.0975 and 85.2162 and 75.5111 and 91.061 and 20.8827 and 22.73 and 14.0732 and 38.9752 and 29.9961 and 25.8403 | 50.0191 and 38.4004 and 28.0445 and 63.4341 and 52.1546 and 58.7101 and 8.067 and 10.1642 and 0.7234 and 8.708 and 10.6741 and 5.686 | 11.2254 and 10.5953 and 6.644 and 26.1895
2 | – | – | – | – | – | – | 6 | C[C@@H](C1CCCCC1)n1c(-c2cc3c(cc2Br)OCO3)nc2cc(C(=O)Nc3ccc(C#N)cc3)ccc21 [AZ3451] | – | – | – | – | – | – | – | – | –
